The record followed here is article PMC12314892, “Macrocyclic Phage Display for Identification of Selective Protease Substrates” (Journal of the American Chemical Society, 2025).

Entries after “also recorded” stand apart in the source; their conditions may differ. *1 amine or outer side, *2 acyl side, *3 side chain or, on linkers, in order; H or OH if unused. Where a SMILES comes first, the peptide text is derived from it. Bridges are numbered along the chain shown (N, C = ends). The star is where a group is joined. X1 = NC(=O)Cc1cc(=O)oc2cc(NC(=O)[C@@H]3CCCN3C(=O)Cn3nc(C[*:1])cc3C[*:2])ccc12; X2 = NC(=O)Cc1cc(=O)oc2cc(NC(=O)[C@@H]3CCCN3C(=O)Cn3nc(C[*:2])cc3C[*:1])ccc12; AMC = Cc1cc(=O)oc2cc(N*)ccc12; Cbz = O=C(OCc1ccccc1)*

The subject of the test is HEK293 Tet-Off cells with inducible FAPα expression. In words: Live-cell substrate assay. The test is classed as cell-based. To be noted: triplicate; for substrate cleavage in cells (mean slope RFU per minute), in words: HEK293 FAP+ vs doxycycline-suppressed FAP- cells, 1400 cells per well in PBS, 200 μM substrate, 37 °C, 90 min; for substrate cleavage in cells after inhibitor pre-treatment, in words: cells pre-treated 30 min at 37 °C with 1 μM UAMC-1100 (FAPα) or VbP (DPP4) before 200 μM substrate. The method, then: 7.5. The following commercial substrates were used: zGP-AMC (Bachem,Catalog No.: […]
conducted in Greiner Bio-One black microplates of 384 wells and polystyrene F-bottom (Catalog No.: 784076). All compounds were dissolved in DMSO at a concentration of 10 mM and then diluted into the respective buffer to the desired final concentration. […]
ACC substrates. […]
HEK tet-off FAPα stable clonal cell line, received from the group of Jan Konvalinka, IOCB Prague, was cultured in IMDM medium with L-glutamine (Sigma-Aldrich, 51471C-1000ML), and supplemented with 10% […] and antibiotics – Geneticin G418 400 μg/ml (Roche, G418-RO) and Puromycin 0.5 μg/ml (Corning, MT61385RA) or Doxycycline 100 ng/ml (Sigma-Aldrich, D9891-1G). In general, cells were passaged at least two times after thawing before their use in cellular […]
assays. FAPα expression was suppressed with Doxycycline for at least a week prior to an […]
Live-cell substrate assay
Cells were grown to near confluency and harvested via trypsinization. After dissociation, extra media with serum was added to prevent further trypsinization. To collect the cells, those were centrifuged for 3 min at 500G and media removed. Cells were washed a total of three times with PBS and resuspended in PBS to 100 cells per μL. To perform the activity assay 14 μL of suspended cells in PBS (100 cell/μL) were plated in a black 384-well low volume “V” bottom plate (total of 1400 cells per well) and pre-treated with 2 μL of either vehicle or inhibitors (1 μM final concentration) for 30 min at 37 °C. DMSO was used as the vehicle. The inhibitors used were […]
DPP4 activity, respectively, in addition to other homologous proteases. After this time, 4 μL of the desired substrate was added to a final concentration of 200 μM and the fluorescence was recorded immediately. Fluorescence was measured using a Cytation 3 plate reader (BioTek). All experiments have at least three technical replicates. All assays were conducted at 37°C for 90 min, unless otherwise noted. Fluorescence measurements were performed at ex/em, 355/460 nm for ACC substrates. The substrates velocity was quantified by calculating the slope of the linear […]
3.2 Phage Display Methodology
The library and panning protocol was adapted from Ekanayake et. al.2 […]
The phage encoded library has the terminal sequence AACXXXXXXXCG. The complexity of the library is 1x109. In general a minimum of 5x1010 PFU were used for panning to have 50 copies of each sequence represented at the beginning of panning.
General reagents for phage display
15.5 g of 2X YT broth (1.6% tryptone, 1.0% yeast extract, 0.5% sodium chloride) 500mL of MilliQ water in a 2L flask, autoclaved.
YT media with 30 μg/mL final concentration of chloramphenicol (CA)
15.5 g of 2X YT broth (1.6% tryptone, 1.0% yeast extract, 0.5% sodium chloride) 500 mL of MilliQ water in a 2L flask, autoclaved. Let it cool to room temperature. Add 500 μL of 30 mg/mL chloramphenicol in ethanol.
Agar plates of YT media with chloramphenicol (30 μg/mL CA)
Weight out 31 g of 2X YT broth (1.6% tryptone, 1.0% yeast extract, 0.5% sodium chloride), 15 g of agar and add 1000 mL of MilliQ water. Autoclave. Let it cool down to approximately 55°C and add 1000 μL of 30 mg/mL CA in ethanol. Mix and pour into plates under sterile conditions.

Take `CC(C)[C@@H]1NC(=O)[C@@H](N)CSCc2cc(n(CC(=O)N3CCC[C@H]3C(=O)Nc3ccc4c(CC(N)=O)cc(=O)oc4c3)n2)CSC[C@@H](C(=O)NCC(N)=O)NC(=O)[C@H](CC(=O)O)NC(=O)[C@H](C)NC(=O)[C@H](CC(N)=O)NC(=O)[C@H](CCC(N)=O)NC(=O)[C@H](Cc2ccccc2)NC(=O)[C@H](CO)NC1=O` [FAP-33.2A6] (H-CVSFQNADCG-NH2; linker 1-9 via X1; N-terminus assumed): the “substrate cleavage in cells (mean slope RFU per minute), in words” value was “selectively cleaved in FAP+ cells” and the “substrate cleavage in cells after inhibitor pre-treatment, in words” value is reported as “hydrolysis suppressed by the FAPα inhibitor UAMC1100 but not by the DPP4 inhibitor VbP”.

As for `CC(C)C[C@@H]1NC(=O)[C@H](CC(N)=O)NC(=O)[C@H](CCC(N)=O)NC(=O)[C@H](Cc2ccccc2)NC(=O)[C@H](CO)NC(=O)[C@H](C(C)C)NC(=O)[C@@H](N)CSCc2cc(nn2CC(=O)N2CCC[C@H]2C(=O)Nc2ccc3c(CC(N)=O)cc(=O)oc3c2)CSC[C@@H](C(=O)NCC(N)=O)NC(=O)[C@H](CC(=O)O)NC1=O` [FAP-33.2] (H-CVSFQNLDCG-NH2; linker 1-9 via X2; N-terminus assumed), the “substrate cleavage in cells (mean slope RFU per minute), in words” value is “no activity in cells”. Consider `Cc1cc(=O)oc2cc(NC(=O)[C@@H]3CCCN3C(=O)CN)ccc12` [GP-AMC] (H-Gly-Pro-{AMC}), for which the “substrate cleavage in cells after inhibitor pre-treatment, in words” value was “produced signals in HEK cells even when target proteases were chemically inhibited”. Turning to `Cc1cc(=O)oc2cc(NC(=O)[C@@H]3CCCN3C(=O)CNC(=O)OCc3ccccc3)ccc12` [zGP-AMC] (Cbz-Gly-Pro-{AMC}), the “substrate cleavage in cells after inhibitor pre-treatment, in words” value is “processed in the presence of both inhibitors; also recorded: produced signals in HEK cells even when target proteases were chemically inhibited”.
